Measurements reported in patent publication US20240217983A1, “GPR119 AGONISTS” (Kallyope, Inc., priority 2021, published 2024).

Biological target: T1, human GPR119 (hGPR119) (Homo sapiens, UniProt Q8TDV5)
T1 construct: expressed in transfected cells
T1 sequence (Q8TDV5 1-335): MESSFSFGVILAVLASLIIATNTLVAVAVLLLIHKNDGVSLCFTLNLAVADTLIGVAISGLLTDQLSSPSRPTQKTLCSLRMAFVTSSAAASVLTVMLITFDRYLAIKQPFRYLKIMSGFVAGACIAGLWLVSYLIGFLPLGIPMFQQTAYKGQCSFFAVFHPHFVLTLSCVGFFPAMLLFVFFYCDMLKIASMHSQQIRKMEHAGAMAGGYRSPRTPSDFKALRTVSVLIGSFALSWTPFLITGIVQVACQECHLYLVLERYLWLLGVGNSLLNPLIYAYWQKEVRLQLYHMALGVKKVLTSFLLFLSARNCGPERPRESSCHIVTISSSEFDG
Experiment: cAMP accumulation assay (Cisbio cAMP Gs dynamic HTRF kit) in CHO-K1 cells stably expressing human GPR119
Type: cell-based
Conditions: 4-parameter fit; for Emax: 1 h, % activity normalized to Max and Min controls; for EC50: 60 minutes at 37° C.
In short: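 CHO-K1 cells stably expressing hGPR119, used as assay-ready frozen stocks at ~10,000 cells/well, exposed to compound dose-response in stimulation buffer with Tween 80 for 60 min at 37° C. cAMP read by HTRF (665/620 nm ratio), normalised to Max/Min controls; EC50 and Max activity from 4-parameter fit.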

`O=C(Cc1ccc(OCCCC2CCN(c3ncc(Cl)cn3)CC2)cc1F)N1C[C@@H]2CCN(C[C@H](O)[C@@H](O)[C@H](O)[C@H](O)CO)[C@@H]2C1` [Example 35, 2-(4-(3-(1-(5-chloropyrimidin-2-yl)piperidin-4-yl)propoxy)-2-fluorophenyl)-1-((3aS,6aS)-1-((2S,3R,4R,5R)-2,3,4,5,6-pentahydroxyhexyl)hexahydropyrrolo[3,4-b]pyrrol-5(1H)-yl)ethan-1-one] gave an Emax of 100 to 130% and an EC50 of no more than 100 nM.
`O=C(Cc1ccc(OCCCC2CCN(c3ncc(Cl)cn3)CC2)cc1F)N1CCC2(CC1)CCN2C[C@H](O)[C@H](O)[C@H](O)CO` [Example 67, 2-(4-(3-(1-(5-chloropyrimidin-2-yl)piperidin-4-yl)propoxy)-2-fluorophenyl)-1-(1-((2S,3S,4R)-2,3,4,5-tetrahydroxypentyl)-1,7-diazaspiro[3.5]nonan-7-yl)ethan-1-one] showed an Emax of 100 to 130% and an EC50 of no more than 100 nM.
For `CCCc1cnc(N2CCC(CCCOc3ccc(CC(=O)N4CCN(C[C@H](O)[C@@H](O)[C@H](O)[C@H](O)CO)CC4)c(F)c3)CC2)nc1` [Example 94, 2-(2-fluoro-4-(3-(1-(5-propylpyrimidin-2-yl)piperidin-4-yl)propoxy)phenyl)-1-(4-((2S,3R,4R,5R)-2,3,4,5,6-pentahydroxyhexyl)piperazin-1-yl)ethan-1-one], the Emax was 100 to 130% and the EC50 was no more than 100 nM.
`O=C(Cc1ccc(OCCCC2CCN(c3ncc(Cl)cn3)CC2)cc1F)N1CCC12CN(C[C@H](O)[C@@H](O)[C@H](O)[C@H](O)CO)C2` [Example 41, 2-(4-(3-(1-(5-chloropyrimidin-2-yl)piperidin-4-yl)propoxy)-2-fluorophenyl)-1-(6-((2S,3R,4R,5R)-2,3,4,5,6-pentahydroxyhexyl)-1,6-diazaspiro[3.3]heptan-1-yl)ethan-1-one] showed an Emax of 100 to 130% and an EC50 greater than 10000 nM.
Compound `O=C(CCCCS(=O)(=O)O)N1CC2CC(C1)N2C(=O)Cc1ccc(OCCCC2CCN(c3ncc(Cl)cn3)CC2)cc1F` [Example 16, 5-(6-(2-(4-(3-(1-(5-chloropyrimidin-2-yl)piperidin-4-yl)propoxy)-2-fluorophenyl)acetyl)-3,6-diazabicyclo[3.1.1]heptan-3-yl)-5-oxopentane-1-sulfonic acid] has an Emax of 100 to 130% and an EC50 of no more than 100 nM.
In the case of `O=C(Cc1ccc(OCCCC2CCN(c3ncc(Cl)cn3)CC2)cc1F)N1C[C@H]2CN(C[C@H](O)[C@H](O)[C@H](O)CO)C[C@H]2C1` [Example 44, 2-(4-(3-(1-(5-chloropyrimidin-2-yl)piperidin-4-yl)propoxy)-2-fluorophenyl)-1-((3aR,6aS)-5-((2S,3S,4R)-2,3,4,5-tetrahydroxypentyl)hexahydropyrrolo[3,4-c]pyrrol-2(1H)-yl)ethan-1-one], the Emax is reported as 100 to 130% and the EC50 is reported as no more than 100 nM.
For `O=C(Cc1c(F)cc(OCCCCC2CCN(c3ncc(Cl)cn3)CC2)cc1F)N1CCN(C[C@H](O)[C@@H](O)[C@H](O)[C@H](O)CO)CC1` [Example 87, 2-(4-(4-(1-(5-chloropyrimidin-2-yl)piperidin-4-yl)butoxy)-2,6-difluorophenyl)-1-(4-((2S,3R,4R,5R)-2,3,4,5,6-pentahydroxyhexyl)piperazin-1-yl)ethan-1-one], the Emax was no less than 130% and the EC50 was no more than 100 nM.
